# Measurements from PMC10794144, “A novel antibiotic class targeting the lipopolysaccharide transporter” (Nature, 2024).
# Read-outs that look alike come from different tables or passages of the source.
# Legend:
# S. aureus ATCC 29213 = test: microbe, parasite or virus in culture; details: Staphylococcus aureus
# Description: MIC determinations were performed using the broth microdilution method and in line with CLSI guidelines M07 and M100 (refs. [37],[38]). Bacterial inocula were prepared by diluting a 0.5 McFarland suspension in CAMHB or lysogeny broth (LB) specifically for A. baylyi isolates. […] MIC values of all of the tested antibiotics were read as the lowest compound concentration inhibiting bacterial growth by naked eye or beyond which the OD600 ceased to decrease.
# A. baumannii = test: microbe, parasite or virus in culture; details: for MIC90 / MIC: Acinetobacter baumannii
# Outline: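 MIC was taken as the lowest concentration without visible growth, or past which OD600 no longer fell. Testing followed CLSI M07 and M100 broth microdilution, using 0.5 McFarland-derived inocula in CAMHB (LB for A. baylyi isolates).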
smiles,measurement,setting,value
"C[C@@H](O)[C@H]1C(=O)N2C(C(=O)O)=C(S[C@@H]3CN[C@H](C(=O)N(C)C)C3)[C@H](C)[C@H]12 [meropenem, reference compound]",MIC,"S. aureus ATCC 29213; ATCC29213, CAMHB, mode of at least three replicates (RO7036668 one replicate)",0.12 µg/mL
same,MIC,"S. aureus ATCC 29213; ATCC29213, read-out: MIC 100%, Study LGC277937, 100%",0.12 µg/mL
same,MIC,"S. aureus ATCC 29213; ATCC29213, read-out: MIC 100%, Study LGC279800, 100%",≤ 0.06 µg/mL
same,MIC,"S. aureus ATCC 29213; ATCC29213, read-out: MIC 100%, Study LGC281440, 100%",0.12 µg/mL
same,MIC,"S. aureus ATCC 29213; ATCC29213, read-out: MIC 100%, Study LGC282160, 100%",≤ 0.06 µg/mL
same,MIC,"S. aureus ATCC 29213; ATCC29213, read-out: MIC 100%, Study LGC282623, 100%",0.12 µg/mL
same,MIC,"S. aureus ATCC 29213; ATCC29213, read-out: MIC 100%, Study LGC283932, 100%",0.12 µg/mL
same,MIC,"S. aureus ATCC 29213; ATCC29213, read-out: MIC 100%, Study LGC284200, 100%",0.12 µg/mL
same,MIC,"S. aureus ATCC 29213; ATCC29213, read-out: MIC 100%, Study LGC284879, 100%",0.12 µg/mL
same,MIC,"S. aureus ATCC 29213; ATCC29213, read-out: MIC 100%, Study LGC285582, 100%",0.12 µg/mL
same,MIC,"S. aureus ATCC 29213; ATCC29213, read-out: MIC 100%, Study LGC286210, 100%",0.25 µg/mL
same,MIC,"S. aureus ATCC 29213; ATCC29213, read-out: MIC 100%, Study LGC293598, 100%",0.12 µg/mL
same,MIC,"S. aureus ATCC 29213; ATCC29213, read-out: MIC 100%, Study LGC294355, 100%",≤ 0.06 µg/mL
same,MIC,"S. aureus ATCC 29213; ATCC29213, read-out: MIC 100%, Study LGC295147, 100%",0.12 µg/mL
same,MIC,"S. aureus ATCC 29213; ATCC29213, read-out: MIC 100%, Study LGC296813, 100%",≤ 0.06 µg/mL
same,MIC,"S. aureus ATCC 29213; ATCC29213, read-out: MIC 100%, Study LGC299544, 100%",0.12 µg/mL
same,MIC,"S. aureus ATCC 29213; ATCC29213, read-out: MIC 100%, Study LGC301026, 100%",0.12 µg/mL
same,MIC,"S. aureus ATCC 29213; ATCC29213, read-out: MIC 100%, Study LGC308175, 100%",≤ 0.06 µg/mL
same,MIC,"S. aureus ATCC 29213; ATCC29213, read-out: MIC 100%, Study ROC003, 100%",≤ 0.06 µg/mL
same,MIC,"S. aureus ATCC 29213; ATCC29213, read-out: MIC 100%, Study ROC004, 100%",≤ 0.06 µg/mL
same,MIC,"S. aureus ATCC 29213; ATCC29213, read-out: MIC 100%, Study ROC005, 100%",≤ 0.06 µg/mL
same,MIC,"S. aureus ATCC 29213; ATCC29213, read-out: MIC 100%, Study ROC006, 100%",0.12 µg/mL
same,MIC,"S. aureus ATCC 29213; ATCC29213, read-out: MIC 100%, Study ROC007, 100%",0.12 µg/mL
same,MIC,"S. aureus ATCC 29213; ATCC29213, read-out: MIC 100%, Study ROC008, 100%",0.12 µg/mL
same,MIC,"S. aureus ATCC 29213; ATCC29213, read-out: MIC 100%, Study ROC009, 100%",≤ 0.06 µg/mL
same,MIC,"S. aureus ATCC 29213; ATCC29213, read-out: MIC 100%, Study ROC010, 100%",≤ 0.06 µg/mL
same,MIC,"S. aureus ATCC 29213; ATCC29213, read-out: MIC 100%, Study ROC012, 100%",≤ 0.06 µg/mL
same,MIC,"S. aureus ATCC 29213; ATCC29213, read-out: MIC 100%, Study ROC013, 100%",0.12 µg/mL
same,MIC range,"A. baumannii; 10 MDR isolates, CAMHB, MCPs read at 80% growth inhibition",1 to 64 mg/L
same,MIC90,A. baumannii,64 µg/mL
same,MIC90,"A. baumannii; 129 clinical isolates, CAMHB",> 16 µg/mL
same,MIC,"A. baumannii; ACC00445, CAMHB, MCPs read at 80% inhibition",> 16 µg/mL
same,MIC,"A. baumannii; ACC00535, CAMHB, MCPs read at 80% inhibition",> 16 µg/mL
same,MIC,"A. baumannii; ACC01073, CAMHB, MCPs read at 80% inhibition",16 µg/mL
same,MIC,"A. baumannii; ACC01077, CAMHB, MCPs read at 80% inhibition",> 16 µg/mL
same,MIC,"A. baumannii; ACC01085 / AR0307, CAMHB, MCPs read at 80% inhibition",8 µg/mL
same,MIC,"A. baumannii; ATCC17978, ATCC 17978, CAMHB, MCPs read at 80% inhibition",0.25 µg/mL
same,MIC,"A. baumannii; ATCC17978, ATCC 17978, CAMHB, one replicate, MCPs read at 80% growth inhibition",0.5 µg/mL
same,MIC,"A. baumannii; ATCC17978, read-out: MIC 100%, ATCC 17978, Study LGC301026, 100%",0.25 µg/mL
same,MIC,"A. baumannii; ATCC17978, read-out: MIC 100%, ATCC 17978, Study LGC308175, 100%",0.5 µg/mL
same,MIC,"A. baumannii; ATCC19606, ATCC 19606, CAMHB, MCPs read at 80% growth inhibition",1 µg/mL
same,MIC,"A. baumannii; ATCC19606, ATCC 19606, CAMHB, MCPs read at 80% inhibition",1 µg/mL
same,MIC,"A. baumannii; ATCC19606, read-out: MIC 100%, ATCC 19606, Study LGC277937, 100%",1 µg/mL
same,MIC,"A. baumannii; ATCC19606, read-out: MIC 100%, ATCC 19606, Study LGC279800, 100%",1 µg/mL
same,MIC,"A. baumannii; ATCC19606, read-out: MIC 100%, ATCC 19606, Study LGC281440, 100%",1 µg/mL
same,MIC,"A. baumannii; ATCC19606, read-out: MIC 100%, ATCC 19606, Study LGC282160, 100%",1 µg/mL
